The compounds below were run against neurotensin receptor 1 (NTR1) (Homo sapiens (Human), UniProt P30989) (assay: NTR1 dose response, high-content imaging beta-arrestin-GFP assay in NTR1-U2OS cells). Conditions: read-out: EC50.
Format: cell-based

neurotensin receptor 1 (NTR1), sequence (P30989 whole entry, species assumed): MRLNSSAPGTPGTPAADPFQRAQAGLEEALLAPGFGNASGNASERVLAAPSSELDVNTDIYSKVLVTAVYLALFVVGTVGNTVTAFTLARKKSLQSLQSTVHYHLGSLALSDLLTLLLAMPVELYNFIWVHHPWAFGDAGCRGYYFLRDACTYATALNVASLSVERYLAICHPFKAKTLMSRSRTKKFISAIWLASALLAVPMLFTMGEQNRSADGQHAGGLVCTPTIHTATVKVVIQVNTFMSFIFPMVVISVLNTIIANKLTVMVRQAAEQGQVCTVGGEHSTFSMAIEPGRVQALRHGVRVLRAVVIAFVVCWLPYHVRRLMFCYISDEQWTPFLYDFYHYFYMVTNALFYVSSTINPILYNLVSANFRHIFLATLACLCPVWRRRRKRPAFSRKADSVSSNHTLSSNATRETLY

| Compound | EC50 [µM] |
| --- | --- |
| CN(C)c1ccccc1C1CCN(c2nc(C3CCCC3)nc3ccc(N(C)CCN4CCOCC4)cc23)CC1 [Example 74, {2-cyclopentyl-4-[4-(2-dimethylamino-phenyl)-piperidin-1-yl]-quinazolin-6-yl}-methyl-(2-morpholin-4-yl-ethyl)-amine] | 2 to 10 |
| CN(C)c1ccccc1C1CCN(c2nc(C3(F)CCCC3)nc3ccc(N(C)CCO)cc23)CC1 [Example 75, 2-{[4-[4-(2-dimethylamino-phenyl)-piperidin-1-yl]-2-(1-fluoro-cyclopentyl)-quinazolin-6-yl]-methyl-amino}-ethanol] | 2 to 10 |
| COc1ccccc1C1CCN(c2nc(C3CC3)nc3ccc(CN(C)C)cc23)CC1 [Example 86, {2-cyclopropyl-4-[4-(2-methoxy-phenyl)-piperidin-1-yl]-quinazolin-6-ylmethyl}-dimethyl-amine] | > 10 |
| COCCN(C)Cc1ccc2nc(C3CC3)nc(N3CCC(c4ccccc4OC)CC3)c2c1 [Example 87, {2-cyclopropyl-4-[4-(2-methoxy-phenyl)-piperidin-1-yl]-quinazolin-6-ylmethyl}-(2-methoxy-ethyl)-methyl-amine] | 2 to 10 |
| COc1ccccc1C1CCN(c2nc(C3CC3)nc3ccc(CN(C)CCO)cc23)CC1 [Example 89, 2-({2-cyclopropyl-4-[4-(2-methoxy-phenyl)-piperidin-1-yl]-quinazolin-6-ylmethyl}-methyl-amino)-ethanol] | > 10 |
| COc1ccccc1C1CCN(c2nc(N(C)C)nc3ccc(N(C)CCO)cc23)CC1 [Example 94] | 0.5 to 2 |
| CCCN(C)c1ccc2nc(N(C)C)nc(N3CCC(c4ccccc4OC)CC3)c2c1 [Example 95, 4-(4-(2-methoxyphenyl)piperidin-1-yl)-N2,N2,N6-trimethyl-N6-propylquinazoline-2,6-diamine] | > 10 |
| CCCN(CCC)c1ccc2nc(N(C)C)nc(N3CCC(c4ccccc4OC)CC3)c2c1 [Example 96, 4-(4-(2-methoxyphenyl)piperidin-1-yl)-N2,N2-dimethyl-N6,N6-dipropylquinazoline-2,6-diamine] | > 10 |
| CCCN(C)c1ccc2nc(NC3CCC3)nc(N3CCC(c4ccccc4OC)CC3)c2c1 [Example 97, N2-Cyclobutyl-4-[4-(2-methoxy-phenyl)-piperidin-1-yl]-N6-methyl-N6-propyl-quinazoline-2,6-diamine] | > 10 |
| COc1ccccc1C1CCN(c2nc(NC3CCC3)nc3ccc(N(C)CCO)cc23)CC1 [Example 98, 2-((2-(cyclobutylamino)-4-(4-(2-methoxyphenyl)piperidin-1-yl)quinazolin-6-yl)(methyl)amino)ethanol] | > 10 |
| COc1ccccc1N1CC2(C1)CN(c1nc(C3CC3)nc3ccc(N(C)CCO)cc13)C2 [Example 99, 2-({2-cyclopropyl-4-[6-(2-methoxy-phenyl)-2,6-diaza-spiro [3.3]hept-2-yl]-quinazolin-6-yl}-methyl-amino)-ethanol] | 2 to 10 |
| CCCN(C)c1ccc2nc(C3CC3)nc(N3CC4(CN(c5ccccc5OC)C4)C3)c2c1 [Example 100, {2-cyclopropyl-4-[6-(2-methoxy-phenyl)-2,6-diaza-spiro [3.3]hept-2-yl]-quinazolin-6-yl}-methyl-propyl-amine] | 2 to 10 |
| COc1ccccc1N1CC2(C1)CN(c1nc(C3CC3)nc3ccc(N(C)CCN4CCOCC4)cc13)C2 [Example 101, {2-cyclopropyl-4-[6-(2-methoxy-phenyl)-2,6-diaza-spiro [3.3]hept-2-yl]-quinazolin-6-yl}-methyl-(2-morpholin-4-yl-ethyl)-amine] | > 10 |

Continued, values first:

| EC50 [µM] | Compound |
| --- | --- |
| 2 to 10 | COc1ccccc1C1CCN(c2nc(C3CC3)nc3ccc(N4CCC(O)CC4)cc23)CC1 [Example 76, 1-{2-cyclopropyl-4-[4-(2-methoxy-phenyl)-piperidin-1-yl]-quinazolin-6-yl}-piperidin-4-ol] |
| 2 to 10 | COc1ccccc1C1CCN(c2nc(C3CC3)nc3ccc(N4CCC(OC)CC4)cc23)CC1 [Example 77] |
| > 10 | COc1ccccc1C1CCN(c2nc(C3CC3)nc3ccc(N4CCC(N(C)C)CC4)cc23)CC1 [Example 78, (1-{2-cyclopropyl-4-[4-(2-methoxy-phenyl)-piperidin-1-yl]-quinazolin-6-yl}-piperidin-4-yl)-dimethyl-amine] |
| 0.5 to 2 | COc1ccccc1C1CCN(c2nc(C3CC3)nc3ccc(N4CCC(O)C4)cc23)CC1 (stereo not drawn) [Example 79, 1-{2-cyclopropyl-4-[4-(2-methoxy-phenyl)-piperidin-1-yl]-quinazolin-6-yl}-pyrrolidin-3-ol] |
| 0.5 to 2 | COc1ccccc1C1CCN(c2nc(C3CC3)nc3ccc(N4CCC(OC)C4)cc23)CC1 (stereo not drawn) [Example 80, 2-cyclopropyl-4-[4-(2-methoxy-phenyl)-piperidin-1-yl]-6-(3-methoxy-pyrrolidin-1-yl)-quinazoline] |
| < 0.5 | COc1ccccc1C1CCN(c2nc(C3CC3)nc3ccc(N4CC[C@@H](O)C4)cc23)CC1 [Example 81, (R)-1-{2-cyclopropyl-4-[4-(2-methoxy-phenyl)-piperidin-1-yl]-quinazolin-6-yl}-pyrrolidin-3-ol] |
| 0.5 to 2 | COc1ccccc1C1CCN(c2nc(C3CC3)nc3ccc(N4CC[C@H](O)C4)cc23)CC1 [Example 82, (S)-1-(2-cyclopropyl-4-(4-(2-methoxyphenyl)piperidin-1-yl)quinazolin-6-yl)pyrrolidin-3-ol] |
| < 0.5 | COc1ccccc1C1CCN(c2nc(C3CC3)nc3ccc(N4CC[C@@H](OC)C4)cc23)CC1 [Example 83, (R)-2-cyclopropyl-4-(4-(2-methoxyphenyl)piperidin-1-yl)-6-(3-methoxypyrrolidin-1-yl)quinazoline] |
| 0.5 to 2 | COc1ccccc1C1CCN(c2nc(C3CC3)nc3ccc(N4CC[C@H](OC)C4)cc23)CC1 [Example 84, (S)-2-cyclopropyl-4-(4-(2-methoxyphenyl)piperidin-1-yl)-6-(3-methoxypyrrolidin-1-yl)quinazoline] |
| > 10 | CCCN(C)Cc1ccc2nc(C3CC3)nc(N3CCC(c4ccccc4OC)CC3)c2c1 [Example 85, {2-cyclopropyl-4-[4-(2-methoxy-phenyl)-piperidin-1-yl]-quinazolin-6-ylmethyl}-methyl-propyl-amine] |
| > 10 | COc1ccccc1C1CCN(c2nc(C3CC3)nc3ccc(CN(C)CCN4CCOCC4)cc23)CC1 [Example 88, {2-cyclopropyl-4-[4-(2-methoxy-phenyl)-piperidin-1-yl]-quinazolin-6-ylmethyl}-methyl-(2-morpholin-4-yl-ethyl)-amine] |
| > 10 | CCOC(=O)CN(C)c1ccc2nc(C3CC3)nc(N3CCC(c4ccccc4OC)CC3)c2c1 [Example 90, ({2-cyclopropyl-4-[4-(2-methoxy-phenyl)-piperidin-1-yl]-quinazolin-6-yl}-methyl-amino)-acetic acid ethyl ester] |
| > 10 | CCOC(=O)CN(CC(=O)OCC)C1CCN(c2ccc3nc(C4CC4)nc(N4CCC(c5ccccc5OC)CC4)c3c2)CC1 [Example 92] |
| > 10 | CCOC(=O)CN(C)C1CCN(c2ccc3nc(C4CC4)nc(N4CCC(c5ccccc5OC)CC4)c3c2)CC1 [Example 93, [(1-{2-cyclopropyl-4-[4-(2-methoxy-phenyl)-piperidin-1-yl]-quinazolin-6-yl}-piperidin-4-yl)-methyl-amino]-acetic acid ethyl ester] |

Source: patent US10118902B2 (Sanford Burnham Prebys Medical Discovery Institute, priority 2014, dated 2018)
